Results from US4766131A, “2-amino (or hydroxy) phenethyl-1,2,3,4-tetrahydroisoquinolines as analgesics” (Pennwalt Corporation, priority 1986, dated 1988).
Counter-ions that a name gives are not always drawn.

Tests used:
[1] = literature, Medicinal Chemistry, Vol. 5; cited from earlier work
mice [2] = test: phenyl-benzoquinone (PBQ) writhing test; format: in vivo, mouse
Procedure: (§1) Two compounds, N-(4-aminophenethyl)-1,2,3,4-tetrahydro-6,7-dimethoxy-1-methylisoquinoline(Compound No. 1) and its N-methyl derivative (Compound No. 2) were tested for analgesic activity in rats and mice by the oral and subcutaneous routes. In addition, gross behavioral and toxicological effects (as well as general pharmacological profiling) were evaluated in mice by the intraperitoneal route of administration.
In mice, two test procedures designed to detect analgesic activity were used: the phenyl-benzoquinone (PBQ) writhing test and the hot plate test. […] […] In the hot plate test, subjects were placed on the surface of a hot copper plate maintained at 54.5°±1.0° C. For the oral studies drugs were injected 30 minutes before testing on the hot plate. Drugged animals whose reaction time (consisting of paw licking or jumping behavior) was equal to or greater than 2 seconds over the average of an untreated control group of mice were considered to be protected from the pain.

mice [3] = test: hot plate test in mice; format: in vivo; conditions: po, 0.5 h; mouse, p.o., 30 minutes before testing, 54.5°±1.0° C.; read-out: ED50 (95% C.L.), Mouse Hot Plate
Procedure: as §1
In mice, two test procedures designed to detect analgesic activity were used: the phenyl-benzoquinone (PBQ) writhing test and the hot plate test. In the PBQ procedure, the drugs were injected 15 minutes before an intraperitoneal injection of PBQ was made for the subcutaneous studies and 30 minutes before the PBQ for the oral studies. […] In the hot plate test, subjects were placed on the surface of a hot copper plate maintained at 54.5°±1.0° C. For the oral studies drugs were injected 30 minutes before testing on the hot plate. Drugged animals whose reaction time (consisting of paw licking or jumping behavior) was equal to or greater than 2 seconds over the average of an untreated control group of mice were considered to be protected from the pain.

rats [4] = test: tail flick test in rats; format: in vivo; conditions: po, 1 h; rat, p.o., 60 minute post dose interval; read-out: ED50 (95% C.L.), Rat Tail Flick
Procedure: as §1
In rats, two procedures designed to detect anlgesic acitivity were used: the hot plate test and the tail flick test. In the hot plate test, rats were placed on the surface of a copper plate maintained at 54.5°±1.0° C. and their response latency (again consisting of paw licking or jumping behavior) determined at 60 minutes and again at 30 minutes before drug injection. These response times were again determined 30 and 60 minutes after drug injection and animals whose response latencies were equal to or greater than three seconds over the second pre-treatment trial (i.e., the one done 30 minutes before dosing) were considered protected from the pain. In the tail flick procedure, a high intensity light beam was focused on the blackened portion of the rat's tail and the reaction time, i.e., latency to move its tail, was measured before and 15, 30, 45, 60, 90 and 120 minutes after drug administration. […]

rats [5] = test: hot plate test in rats; format: in vivo; conditions: 1 h, rat, 60 minute post dose interval, 54.5°±1.0° C., read-out: ED50 (95% C.L.), Rat Hot Plate
Procedure: as §1
In rats, two procedures designed to detect anlgesic acitivity were used: the hot plate test and the tail flick test. In the hot plate test, rats were placed on the surface of a copper plate maintained at 54.5°±1.0° C. and their response latency (again consisting of paw licking or jumping behavior) determined at 60 minutes and again at 30 minutes before drug injection. These response times were again determined 30 and 60 minutes after drug injection and animals whose response latencies were equal to or greater than three seconds over the second pre-treatment trial (i.e., the one done 30 minutes before dosing) were considered protected from the pain. In the tail flick procedure, a high intensity light beam was focused on the blackened portion of the rat's tail and the reaction time, i.e., latency to move its tail, was measured before and 15, 30, 45, 60, 90 and 120 minutes after drug administration. A subject was considered protected from the pain stimulus when Po ≥Pr +Pr 2 where Po is the individual post treatment value and Pr, the pretreatment value. The ED50's reported below for both of these procedures were calculated from values obtained at the 60 minute post dose interval.

[6] = po, 0.5 h, mouse, p.o., drug 30 minutes before PBQ, read-out: ED50 (95% C.L.), Mouse PBQ
[7] = sc, 0.25 h, mouse PBQ assay, s.c., 15 min post dose, table 6, read-out: Analgesic activity, s.c. ED50 at 15 min post dose
[8] = sc, 0.25 h, mouse, s.c., drug 15 minutes before PBQ, table 5, read-out: ED50 (95% C.L.), Mouse PBQ
[9] = sc, 0.75 h, mouse PBQ assay, s.c., 45 min post dose, table 6, read-out: Analgesic activity, s.c. ED50 at 45 min post dose

| SMILES | ED50 (mice [2]; [7]) [mg/kg] | ED50 (mice [2]; [9]) [mg/kg] | other results |
| --- | --- | --- | --- |
| COc1cc2c(cc1OC)C(C)N(CCc1ccc(Cl)cc1)CC2 (stereo not drawn) |  |  | analgesic properties / activity reported by Brossi et al [1]: reported not to exhibit analgesic properties |
| COc1cc2c(cc1OC)C(C)N(CCc1ccc(N)cc1)CC2 (stereo not drawn) [Example 1, N-(4-aminophenethyl)-1,2,3,4-tetrahydro-6,7-dimethoxy-1-methylisoquinoline] | 7 | 24.2 | ED50 (mice [2]; [6]): 48.5 mg/kg; ED50 (mice [2]; [8]): 3.7 mg/kg; ED50 (mice [3]): 25.7 mg/kg; ED50 (rats [4]): ~31.6 mg/kg; ED50 (rats [5]; po, p.o.): 30 to 60 mg/kg; ED50 (rats [5]; sc, s.c.): 35.7 mg/kg |
| CNc1ccc(CCN2CCc3cc(OC)c(OC)cc3C2C)cc1.Cl (stereo not drawn) [Example 2, N-(4-Methylaminophenethyl)-1,2,3,4-tetrahydro-6,7-dimethoxy-1-methylisoquinoline hydrochloride] |  |  | ED50 (mice [2]; [6]): 42.8 mg/kg; ED50 (mice [2]; [8]): 5.2 mg/kg; ED50 (mice [3]): 31.7 mg/kg; ED50 (rats [4]): 30 to 60 mg/kg; ED50 (rats [5]; po, p.o.): ~17.8 mg/kg |
| COc1cc2c(cc1OC)C(C)N(CCc1cccc(N)c1)CC2.Cl.Cl (stereo not drawn) [Example 3, N-(3-Aminophenethyl)-1,2,3,4-tetrahydro-6,7-dimethoxy-1-methylisoquinoline dihydrochloride] | 11.9 | 20.2 |  |
| COc1cc2c(cc1OC)C(C)N(CCc1ccccc1N)CC2 (stereo not drawn) [Example 4, N-(2-Aminophenethyl-1,2,3,4-tetrahydro-6,7-dimethoxy-1-methylisoquinolinedihydrochloride] | 10.7 | 34 |  |
| COc1cc2c(cc1OC)C(C)N(CCc1ccc(N(C)C)cc1)CC2.Cl.Cl (stereo not drawn) [Example 5, N-(4-Dimethylaminophenethyl)-1,2,3,4-tetrahydro-6,7-dimethoxy-1-methylisoquinoline dihydrochloride] | 27.3 | 26.7 |  |
| COc1cc2c(cc1OC)C(C)N(CCc1ccc(NC(C)=O)cc1)CC2.Cl (stereo not drawn) [Example 6, N-(4-Acetamidophenethyl)-1,2,3,4-tetrahydro-6,7-dimethoxy-1-methylisoquinoline hydrochloride] | 21 | 31.6 to 56.2 |  |
| COc1cc2c(cc1OC)CN(CCc1ccc([N+](=O)[O-])cc1)CC2.Cl [Example 7, N-(4-Nitrophenethyl)-1,2,3,4-tetrahydro-6,7-dimethoxyisoquinoline hydrochloride] | 9 | 34 |  |
| COc1cc2c(cc1OC)CN(CCc1ccc(N)cc1)CC2.Cl.Cl [Example 8, N-(4-Aminophenethyl)-1,2,3,4-tetrahydro-6,7-dimethoxyisoquinoline dihydrochloride] | 2.9 | 16.2 |  |
| COc1ccc2c(c1)CCN(CCc1ccc([N+](=O)[O-])cc1)C2C.Cl.Cl (stereo not drawn) [Example 9, N-(4-Nitrophenethyl)-1,2,3,4-tetrahydro-6-methoxy-1-methylisoquinoline dihydrochloride] | 10.4 | 16.4 |  |
| COc1ccc2c(c1)CCN(CCc1ccc(N)cc1)C2C.Cl.Cl (stereo not drawn) [Example 10, N-(4-Aminophenethyl)-1,2,3,4-tetrahydro-6-methoxy-1-methyl-isoquinoline dihydrochloride] | 6.5 | 11.8 |  |
| COc1ccc2c(c1)CCN(CCc1ccc(NC=O)cc1)C2C (stereo not drawn) [Example 11 (N--Formyl), N-(4-Formamidophenethyl)-1,2,3,4-tetrahydro-6-methoxy-1-methylisoquinoline] | 3.5 | 15.3 |  |
| CNc1ccc(CCN2CCc3cc(OC)ccc3C2C)cc1.Cl (stereo not drawn) [Example 11, N-(4-Methylaminophenethyl)-1,2,3,4-tetrahydro-6-methoxy-1-methylisoquinoline hydrochloride] | 6 | 13.8 |  |
| COc1cc2c(cc1OC)C(C)N(CCc1ccc(O)cc1)CC2.Cl (stereo not drawn) [Example 12, N-(4-Hydroxyphenethyl)-1,2,3,4-tetrahydro-6,7-dimethoxy-1-methylisoquinoline hydrochloride] | 5.8 | 10 to 31.6 |  |
| COc1cc2c(cc1OC)CN(CCc1ccc(O)cc1)CC2.Cl [Example 13, N-(4-Hydroxyphenethyl)-1,2,3,4-tetrahydro-6,7-dimethoxyisoquinoline hydrochloride] | 2.8 | 22.4 |  |
| COc1cc2c(cc1O)CCN(CCc1ccc(N)cc1)C2C.Cl.Cl (stereo not drawn) [Example 14, N-(4-Aminophenethyl)-1,2,3,4-tetrahydro-6-hydroxy-7-methoxy-1-methylisoquinoline dihydrochloride] | 7.3 | 25.8 |  |
| CC1c2cc(O)c(O)cc2CCN1CCc1ccc(N)cc1 (stereo not drawn) [Example 15, N-(4-Aminophenethyl)-1,2,3,4-tetrahydro-6,7-dihydroxy-1-methylisoquinolinedihydrobromide] | 25.4 | ~100 |  |
